From patent US5385908A, “Hindered esters of rapamycin” (American Home Products Corporation, priority 1993, dated 1995)
Structures can show the parent of a compound that is named as a salt. Where two headings read alike, the source gives them in different places.

Assays:
[1] = test system: immune mediated inflammation (uninjected hind paw); test: adjuvant arthritis standard pharmacological test procedure; format: in vivo, male inbread Wistar Lewis rats; conditions: for Percent change in adjuvant arthritis versus control: 2 mg/kg oral
Procedure: (§1) Immunosuppressive activity for representative compounds of this invention was evaluated in an in vitro standard pharmacological test procedure to measure lymphocyte proliferation (LAF) and in three in vivo standard pharmacological test procedures. The pinch skin graft test procedure measures the immunosuppressive activity of the compound tested as well as the ability of the compound tested to inhibit or treat transplant rejection. The adjuvant arthritis standard pharmacological test procedure, which measures the ability of the compound tested to inhibit immune mediated inflammation. The adjuvant arthritis test procedure is a standard pharmacological test procedure for rheumatoid arthritis. Representative compounds of this invention were also evaluated in a heart allograft standard pharmacological test procedure which measures immunosuppressive activity of the compound tested as well as the ability of the compound tested to inhibit or treat transplant rejection. The procedures for these standard pharmacological test procedures are provided below.
The adjuvant arthritis standard pharmacological test procedure measures the ability of test compounds to prevent immune mediated inflammation and inhibit or treat rheumatoid arthritis. The following briefly describes the test procedure used. A group of rats (male inbread Wistar Lewis rats) are pre-treated with the compound to be tested (1 h prior to antigen) and then injected with Freud's Complete Adjuvant (FCA) in the right hind paw to induce arthritis. The rats are then orally dosed on a Monday, Wednesday, Friday schedule from day 0-14 for a total of 7 doses. Both hind paws are measured on days 16, 23, and 30. The difference in paw volume (mL) from day 16 to day 0 is determined and a percent change from control is obtained. […] The right hind paw inflammation, on the other hand, is caused by nonspecific inflammation. Compounds were tested at a dose of 2 mg/kg.

[2] = test system: pinch skin graft; test: pinch skin graft survival test procedure; format: in vivo, male BALB/c donors transplanted to male C3H(H-2K) recipients; conditions: 4 mg/kg, intraperitoneally or orally; mean ± S.D.; untreated rejected within 6-7 days
Procedure: as §1
Representative compounds of this invention were also evaluated in an in vivo test procedure designed to determine the survival time of pinch skin graft from male BALB/c donors transplanted to male C3 H(H-2K) recipients. The method is adapted from Billingham R. E. and Medawar P. B., J. Exp. Biol. 28:385-402, (1951 ). Briefly, a pinch skin graft from the donor was grafted on the dorsum of the recipient as a allograft, and an isograft was used as control in the same region. The recipients were treated with either varying concentrations of test compounds intraperitoneally or orally. Rapamycin was used as a test control. Untreated recipients serve as rejection control. The graft was monitored daily and observations were recorded until the graft became dry and formed a blackened scab. This was considered as the rejection day. The mean graft survival time (number of days±S.D.) of the drug treatment group was compared with the control group. […] Results are expressed as the mean survival time in days. Untreated (control) pinch skin grafts are usually rejected within 6-7 days. Compounds were tested using a dose of 4 mg/kg.

[3] = test system: cells from the thymus of normal BALB/c mice (lymphocyte proliferation); test: comitogen-induced thymocyte proliferation procedure (LAF); format: cell-based; conditions: read-out: LAF IC50
Procedure: as §1
The comitogen-induced thymocyte proliferation procedure (LAF) was used as an in vitro measure of the immunosuppressive effects of representative compounds. Briefly, cells from the thymus of normal BALB/c mice are cultured for 72 hours with PHA and IL-1 and pulsed with tritiated thymidine during the last six hours. Cells are cultured with and without various concentrations of rapamycin, cyclosporin A, or test compound. Cells are harvested and incorporated radioactivity is determined. Inhibition of lymphoproliferation is assessed as percent change in counts per minute from non-drug treated controls. For each compound evaluated, rapamycin was also evaluated for the purpose of comparison. An IC50 was obtained for each test compound as well as for rapamycin. […] The results obtained are provided as an IC50.

[4] = test system: heart allograft; test: heterotropic heart allograft standard pharmacological test procedure; format: in vivo, BN rat neonate donors, male Lewis rat recipients; conditions: untreated rejected in about 9-10 days
Procedure: as §1
The ability of the compounds of this invention to induce immunosuppression and inhibit or treat transplantation rejection was evaluated in a heterotropic heart allograft standard pharmacological test procedure that emulates transplantation rejection that occurs in humans. The following briefly describes the procedure that was used. […]

[5] = test system: experimental allergic encephalomyelitis; conditions: model for multiple sclerosis; cited from earlier work
[6] = test system: IgE-like antibodies; conditions: in vivo; cited from earlier work
[7] = test system: Candida albicans; conditions: in vitro and in vivo; cited from earlier work
[8] = Mus musculus, Lymphocyte, PHA and IL-1, 72 hours culture, tritiated thymidine last six hours

In the case of CO[C@H]1C[C@@H]2CC[C@@H](C)[C@@](O)(O2)C(=O)C(=O)N2CCCC[C@H]2C(=O)O[C@H]([C@H](C)C[C@@H]2CC[C@@H](OC(=O)C(C)(C)Cc3cccnc3)[C@H](OC)C2)CC(=O)[C@H](C)/C=C(\C)[C@@H](O)[C@@H](OC)C(=O)[C@H](C)C[C@H](C)/C=C/C=C/C=C/1C [Example 2, Rapamycin 42-ester with 2,2-dimethyl-3-(3-pyridinyl) propionic acid], the “Percent change in adjuvant arthritis versus control” value (“Percent change” for short) ([1]; day 16) is reported as -62%, the “Skin graft survival (mean survival time)” value [2] is reported as 13.6 ± 0.6 days and the IC50 [3, 8] is reported as 0.83 nM. For the same compound, the “Heart allograft (mean graft survival time)” value ([4]; i.p., 300 μg/day) was 29 days and the “Heart allograft (mean graft survival time)” value ([4]; p.o.) was 11.5 days.
For CO[C@H]1C[C@@H]2CC[C@@H](C)[C@@](O)(O2)C(=O)C(=O)N2CCCC[C@H]2C(=O)O[C@H]([C@H](C)C[C@@H]2CC[C@@H](OC(=O)C(C)(C)Cc3cccnc3)[C@H](OC)C2)CC(=O)[C@H](C)/C=C(\C)[C@@H](O)[C@@H](OC)C(=O)[C@H](C)C[C@H](C)/C=C/C=C/C=C/1C [Example 3, Rapamycin 42-ester with 2,2-dimethyl-3-(3-pyridinyl) propionic acid hydrochloride salt], the “Percent change” value ([1]; day 16, hydrochloride salt) was -73% and the IC50 ([3]; PHA and IL-1, 72 hours culture, tritiated thymidine last six hours, hydrochloride salt) was 1.03 nM.
In the case of CO[C@H]1C[C@@H]2CC[C@@H](C)[C@@](O)(O2)C(=O)C(=O)N2CCCC[C@H]2C(=O)O[C@H]([C@H](C)C[C@@H]2CC[C@@H](OC(=O)C(C)(C)CCc3ccccn3)[C@H](OC)C2)CC(=O)[C@H](C)/C=C(\C)[C@@H](O)[C@@H](OC)C(=O)[C@H](C)C[C@H](C)/C=C/C=C/C=C/1C [Example 5, Rapamycin 42-ester with 2,2-dimethyl-4-(2-pyridinyl) butyric acid], the “Percent change” value ([1]; day 16) is reported as -75% and the IC50 [3, 8] is reported as 0.58 nM.
In the case of CO[C@H]1C[C@@H]2CC[C@@H](C)[C@@](O)(O2)C(=O)C(=O)N2CCCC[C@H]2C(=O)O[C@H]([C@H](C)C[C@@H]2CC[C@@H](OC(=O)C(C)(C)CCCc3cccnc3)[C@H](OC)C2)CC(=O)[C@H](C)/C=C(\C)[C@@H](O)[C@@H](OC)C(=O)[C@H](C)C[C@H](C)/C=C/C=C/C=C/1C [Example 6, Rapamycin 42-ester with 2,2-dimethyl-5-(3-pyridinyl) pentanoic acid], the “Percent change” value ([1]; day 16) is reported as -45%, the “Skin graft survival (mean survival time)” value [2] is reported as 12.50 ± 0.55 days and the IC50 [3, 8] is reported as 3 nM.
In the case of CO[C@H]1C[C@@H]2CC[C@@H](C)[C@@](O)(O2)C(=O)C(=O)N2CCCC[C@H]2C(=O)O[C@H]([C@H](C)C[C@@H]2CC[C@@H](OC(=O)C(C)(C)Cc3ccccn3)[C@H](OC)C2)CC(=O)[C@H](C)/C=C(\C)[C@@H](O)[C@@H](OC)C(=O)[C@H](C)C[C@H](C)/C=C/C=C/C=C/1C [Example 7, Rapamycin 42-ester with 2,2-dimethyl-3-(2-pyridinyl) propionic acid], the “Percent change” value ([1]; day 16) is reported as -78% and the IC50 [3, 8] is reported as 0.6 nM.
In the case of CO[C@H]1C[C@@H]2CC[C@@H](C)[C@@](O)(O2)C(=O)C(=O)N2CCCC[C@H]2C(=O)O[C@H]([C@H](C)C[C@@H]2CC[C@@H](OC(=O)C(C)(C)CCc3cccnc3)[C@H](OC)C2)CC(=O)[C@H](C)/C=C(\C)[C@@H](O)[C@@H](OC)C(=O)[C@H](C)C[C@H](C)/C=C/C=C/C=C/1C [Example 8, Rapamycin 42-ester with 2,2-dimethyl-4-(3-pyridinyl) butyric acid], the “Percent change” value ([1]; day 16) is reported as -50% and the IC50 [3, 8] is reported as 1.2 nM.
With CO[C@H]1C[C@@H]2CC[C@@H](C)[C@@](O)(O2)C(=O)C(=O)N2CCCC[C@H]2C(=O)O[C@H]([C@H](C)C[C@@H]2CC[C@@H](OC(=O)C(C)(C)Cc3ccncc3)[C@H](OC)C2)CC(=O)[C@H](C)/C=C(\C)[C@@H](O)[C@@H](OC)C(=O)[C@H](C)C[C@H](C)/C=C/C=C/C=C/1C [Example 9, Rapamycin 42-ester with 2,2-dimethyl-3-(4-pyridinyl) propionic acid] the “Percent change” value ([1]; day 16) was -73%, the “Skin graft survival (mean survival time)” value [2] was 11.17 ± 1.47 days and the IC50 [3, 8] was 0.84 nM.
With CO[C@H]1C[C@@H]2CC[C@@H](C)[C@@](O)(O2)C(=O)C(=O)N2CCCC[C@H]2C(=O)O[C@H]([C@H](C)C[C@@H]2CC[C@@H](OC(=O)C3(C)CCN(C)CC3)[C@H](OC)C2)CC(=O)[C@H](C)/C=C(\C)[C@@H](O)[C@@H](OC)C(=O)[C@H](C)C[C@H](C)/C=C/C=C/C=C/1C [Example 12, Rapamycin 42-ester with 1,4-dimethylpiperidine-4-carboxylic acid] the “Percent change” value ([1]; day 16) was -75%, the “Skin graft survival (mean survival time)” value [2] was 12.83 ± 1.47 days and the IC50 [3, 8] was 0.58 nM.
CO[C@H]1C[C@@H]2CC[C@@H](C)[C@@](O)(O2)C(=O)C(=O)N2CCCC[C@H]2C(=O)O[C@H]([C@H](C)C[C@@H]2CC[C@@H](OC(=O)C3(C)CCCCN3C(=O)c3ccccc3)[C@H](OC)C2)CC(=O)[C@H](C)/C=C(\C)[C@@H](O)[C@@H](OC)C(=O)[C@H](C)C[C@H](C)/C=C/C=C/C=C/1C (stereo partly shown) [Example 13, Rapamycin 42-ester with 1-benzoyl-2-methyl-piperidine-2-carboxylic acid] showed an IC50 [3, 8] of 2.9 nM.
For CO[C@H]1C[C@@H]2CC[C@@H](C)[C@@](O)(O2)C(=O)C(=O)N2CCCC[C@H]2C(=O)O[C@H]([C@H](C)C[C@@H]2CC[C@@H](O)[C@H](OC)C2)CC(=O)[C@H](C)/C=C(\C)[C@@H](O)[C@@H](OC)C(=O)[C@H](C)C[C@H](C)/C=C/C=C/C=C/1C [rapamycin], the “less immune induced inflammation than control rats” value ([1]; rapamycin treated rats, day 16) is listed as 70-90%, the “effect in experimental allergic encephalomyelitis model (in words)” value [5] is listed as “effective in the experimental allergic encephalomyelitis model” and the “inhibition of formation of IgE-like antibodies (in words)” value [6] is listed as “effectively inhibited the formation of IgE-like antibodies”. For the same compound, the IC50 ([3]; Mus musculus, Lymphocyte) was 0.5 to 1.9 nM and the “antifungal activity (in words)” value [7] was “antifungal activity, particularly against Candida albicans, both in vitro and in vivo”.
